ChEMBL document CHEMBL6177952, “Exploring chloro-isoxazole compounds inspired on tetrahydrofuran neolignans as promising antileishmanial agents” (Eur J Med Chem, 2025)
Calls of active or inactive are those of the source. The calls are words filed in the database; no cut-off is given here.

Tests used:
[1] = tested on: Leishmania amazonensis; test: Antileishmanial activity against leishmania amazonensis infected in BALB/c mouse assessed as reduction in […] at 5 mg/kg, ILES measured after 65 days post infection by limiting dilution assay; format: functional, organism-based; details: time 65.0 day
[2] = tested on: Leishmania amazonensis; test: Antileishmanial activity against leishmania amazonensis IFLA/BR/1967/PH8 intracellular amastigote infected in mouse Peritoneal macrophage incubated for 24 hrs; format: functional, organism-based; details: IFLA/BR/1967/PH8, Peritoneal macrophage
[3] = Mutagenicity in Salmonella typhimurium TA102 assessed as number of revertant colonies per plate at 1500 microg/ml by Ames test; format: toxicity; details: salmonella enterica subsp. enterica serovar typhimurium; dose 1500 µg/ml
[4] = tested on: Leishmania amazonensis; test: Antileishmanial activity against leishmania amazonensis infected in BALB/c mouse assessed as reduction in parasitism in draining lymph node at 5 mg/kg, ILES measured after 65 days post infection by limiting dilution assay; format: functional, organism-based; details: time 65.0 day
[5] = Mutagenicity in Salmonella typhimurium TA98 assessed as number of revertant colonies per plate at 1500 microg/ml by Ames test; format: toxicity; details: salmonella enterica subsp. enterica serovar typhimurium; dose 1500 µg/ml
[6] = Mutagenicity in Salmonella typhimurium TA102 assessed as number of revertant colonies per plate at 50 microg/ml by Ames test; format: toxicity; details: salmonella enterica subsp. enterica serovar typhimurium; dose 50 µg/ml
[7] = Selectivity ratio of CC50 for cytotoxicity against BALB/c mouse Peritoneal macrophage assessed as inhibition of cell growth to IC50 for antileishmanial activity against leishmania amazonensis IFLA/BR/1967/PH8 intracellular amastigote infected in mouse Peritoneal macrophage; format: toxicity, cell-based; details: peritoneal macrophages, read-out: Ratio CC50/IC50
[8] = tested on: Leishmania amazonensis; test: Antileishmanial activity against leishmania amazonensis infected in BALB/c mouse assessed as reduction in viable parasites in footpad tissue at 5 mg/kg, ILES measured after 65 days post infection relative to control; format: functional; details: time 65 day
[9] = tested on: Leishmania amazonensis; test: Antileishmanial activity against Leishmania amazonensis promastigotes assessed as early apoptotic parasites at 38.1 uM incubated for 72 hrs by Annexin V/7-AAD staining based flow cytometry analysis relative to control; format: functional
[10] = tested on: Leishmania amazonensis; test: Antileishmanial activity against Leishmania amazonensis promastigotes assessed as late apoptotic parasites at 38.1 uM incubated for 72 hrs by Annexin V/7-AAD staining based flow cytometry analysis relative to control; format: functional
[11] = Mutagenicity in Salmonella typhimurium TA102 assessed as number of revertant colonies per plate at 1500 microg/ml in presence of S9 fraction by Ames test; format: toxicity, subcellular; details: salmonella enterica subsp. enterica serovar typhimurium, dose 1500 µg/ml
[12] = Mutagenicity in Salmonella typhimurium TA102 assessed as number of revertant colonies per plate at 5000 microg/ml by Ames test; format: toxicity; details: salmonella enterica subsp. enterica serovar typhimurium; dose 5000 µg/ml
[13] = tested on: Mitochondrial membrane; test: Induction of mitochondrial membrane potential in Leishmania amazonensis promastigotes at 38.1 uM measured at 48 hrs by flow cytometry analysis; format: cell membranes
[14] = tested on: Leishmania amazonensis; test: Antileishmanial activity against leishmania amazonensis IFLA/BR/1967/PH8 promastigotes infected in mouse Peritoneal macrophage incubated for 24 hrs; format: functional, organism-based; details: IFLA/BR/1967/PH8, Peritoneal macrophage
[15] = tested on: Leishmania amazonensis; test: Antileishmanial activity against Leishmania amazonensis promastigotes assessed as necrotic parasites at 38.1 uM incubated for 24 hrs by Annexin V/7-AAD staining based flow cytometry analysis relative to control; format: functional
[16] = tested on: Leishmania amazonensis; test: Potency index, ratio of pentamidine IC50 to test compound IC50 for antileishmanial activity against leishmania amazonensis IFLA/BR/1967/PH8 promastigotes infected in mouse Peritoneal macrophage incubated for 24 hrs; format: functional
[17] = tested on: Leishmania amazonensis; test: Antileishmanial activity against Leishmania amazonensis promastigotes assessed as viable apoptotic parasites at 38.1 uM incubated for 24 hrs by Annexin V/7-AAD staining based flow cytometry analysis relative to control; format: functional
[18] = tested on: Leishmania amazonensis; test: Antileishmanial activity against Leishmania amazonensis promastigotes assessed as necrotic parasites at 38.1 uM incubated for 48 hrs by Annexin V/7-AAD staining based flow cytometry analysis relative to control; format: functional
[19] = tested on: Leishmania amazonensis; test: Antileishmanial activity against Leishmania amazonensis promastigotes assessed as late apoptotic parasites at 38.1 uM incubated for 24 hrs by Annexin V/7-AAD staining based flow cytometry analysis relative to control; format: functional
[20] = Mutagenicity in Salmonella typhimurium TA102 assessed as number of revertant colonies per plate at 500 microg/ml by Ames test; format: toxicity; details: salmonella enterica subsp. enterica serovar typhimurium; dose 500 µg/ml
[21] = tested on: Leishmania amazonensis; test: Antileishmanial activity against Leishmania amazonensis promastigotes assessed as early apoptotic parasites at 38.1 uM incubated for 48 hrs by Annexin V/7-AAD staining based flow cytometry analysis relative to control; format: functional
[22] = Cytotoxicity against BALB/c mouse Peritoneal macrophage assessed as inhibition of cell growth incubated for 48 hrs by MTT assay; format: toxicity, cell-based; details: peritoneal macrophages
[23] = Mutagenicity in Salmonella typhimurium TA102 assessed as number of revertant colonies per plate at 150 microg/ml by Ames test; format: toxicity; details: salmonella enterica subsp. enterica serovar typhimurium; dose 150 µg/ml
[24] = Mutagenicity in Salmonella typhimurium TA100 assessed as number of revertant colonies per plate at 500 microg/ml by Ames test; format: toxicity; details: salmonella enterica subsp. enterica serovar typhimurium; dose 500 µg/ml
[25] = tested on: Leishmania amazonensis; test: Antileishmanial activity against Leishmania amazonensis promastigotes assessed as necrotic parasites at 38.1 uM incubated for 72 hrs by Annexin V/7-AAD staining based flow cytometry analysis relative to control; format: functional
[26] = Mutagenicity in Salmonella typhimurium TA98 assessed as number of revertant colonies per plate at 50 microg/ml by Ames test; format: toxicity; details: salmonella enterica subsp. enterica serovar typhimurium; dose 50 µg/ml
[27] = tested on: Leishmania amazonensis; test: Antileishmanial activity against Leishmania amazonensis promastigotes assessed as late apoptotic parasites at 38.1 uM incubated for 48 hrs by Annexin V/7-AAD staining based flow cytometry analysis relative to control; format: functional
[28] = Mutagenicity in Salmonella typhimurium TA100 assessed as number of revertant colonies per plate at 150 microg/ml by Ames test; format: toxicity; details: salmonella enterica subsp. enterica serovar typhimurium; dose 150 µg/ml
[29] = Selectivity ratio of CC50 for cytotoxicity against BALB/c mouse Peritoneal macrophage assessed as inhibition of cell growth to IC50 for antileishmanial activity against leishmania amazonensis IFLA/BR/1967/PH8 promastigotes infected in mouse Peritoneal macrophage; format: toxicity, cell-based; details: peritoneal macrophages, read-out: Ratio CC50/IC50
[30] = Mutagenicity in Salmonella typhimurium TA98 assessed as number of revertant colonies per plate at 5000 microg/ml by Ames test; format: toxicity; details: salmonella enterica subsp. enterica serovar typhimurium; dose 5000 µg/ml
[31] = Mutagenicity in Salmonella typhimurium TA98 assessed as number of revertant colonies per plate at 500 microg/ml by Ames test; format: toxicity; details: salmonella enterica subsp. enterica serovar typhimurium; dose 500 µg/ml
[32] = Mutagenicity in Salmonella typhimurium TA100 assessed as number of revertant colonies per plate at 5000 microg/ml by Ames test; format: toxicity; details: salmonella enterica subsp. enterica serovar typhimurium; dose 5000 µg/ml
[33] = tested on: Leishmania amazonensis; test: Antileishmanial activity against leishmania amazonensis infected in BALB/c mouse assessed as reduction in footpad swelling at 5 mg/kg, ILES measured at week 5; format: functional, organism-based; details: time 5.0 weeks
[34] = tested on: Leishmania amazonensis; test: Potency index, ratio of Amphotericin B IC50 to test compound IC50 for antileishmanial activity against leishmania amazonensis IFLA/BR/1967/PH8 promastigotes infected in mouse Peritoneal macrophage incubated for 24 hrs; format: functional
[35] = Mutagenicity in Salmonella typhimurium TA102 assessed as number of revertant colonies per plate at 500 microg/ml in presence of S9 fraction by Ames test; format: toxicity, subcellular; details: salmonella enterica subsp. enterica serovar typhimurium, dose 500 µg/ml

**Q.** Which results are given for `COc1cc(-c2cc(-c3ccc4c(c3)OCO4)on2)c(Cl)c(OC)c1OC`?
**A.** Activity [1]: Active; IC50 [2]: 2.2 µM; Activity [3]: 182 revertants/plate; Activity [4]: Active; revertant count [5]: 32.7 revertants/plate; revertant count [6]: 139 revertants/plate; selectivity ratio [7]: 22.7; Activity [8]: 99.5%; Activity [9]: 2.4%; Activity [10]: 1.9%; Activity [11]: 100 revertants/plate; revertant count [12]: 194 revertants/plate; Activity [13]: Active; IC50 [14]: 38.1 µM; Activity [15]: 0.3%; Ratio IC50 [16]: 29; Activity [17]: 95.5%; Activity [18]: 0.6%; Activity [19]: 0.4%; revertant count [20]: 161 revertants/plate; Activity [21]: 3.6%; CC50 at 48 h [22]: 50.1 µM; Activity [23]: 142 revertants/plate; revertant count [24]: 123 revertants/plate; Activity [25]: 2.5%; Activity [26]: 19.7 revertants/plate; Activity [27]: 0.6%; Activity [28]: 94.6 revertants/plate; selectivity ratio [29]: 1.3; revertant count [30]: 21.3 revertants/plate; revertant count [31]: 23.3 revertants/plate; Activity [32]: 114 revertants/plate; Activity [33]: Active; Ratio IC50 [34]: 3.6; revertant count [35]: 109 revertants/plate
